Data on 46 molecules can be found in patent US6727264B1 (Synaptic Pharmaceutical Corporation, priority 2001, dated 2004).

human Dopamine D2 receptor, sequence (P14416 whole entry): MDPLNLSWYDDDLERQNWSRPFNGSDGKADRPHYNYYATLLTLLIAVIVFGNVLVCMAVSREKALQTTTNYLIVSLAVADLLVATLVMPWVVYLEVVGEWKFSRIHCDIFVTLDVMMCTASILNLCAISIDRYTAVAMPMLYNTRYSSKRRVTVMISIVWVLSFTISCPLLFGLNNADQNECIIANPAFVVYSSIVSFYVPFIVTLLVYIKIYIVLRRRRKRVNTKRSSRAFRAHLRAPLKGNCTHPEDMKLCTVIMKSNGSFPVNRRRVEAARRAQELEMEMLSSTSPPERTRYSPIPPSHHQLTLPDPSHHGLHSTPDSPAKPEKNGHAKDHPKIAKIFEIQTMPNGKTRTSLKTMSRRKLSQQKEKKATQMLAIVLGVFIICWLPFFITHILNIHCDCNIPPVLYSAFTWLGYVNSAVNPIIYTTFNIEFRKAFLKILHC
T1 sequence (P35367 whole entry): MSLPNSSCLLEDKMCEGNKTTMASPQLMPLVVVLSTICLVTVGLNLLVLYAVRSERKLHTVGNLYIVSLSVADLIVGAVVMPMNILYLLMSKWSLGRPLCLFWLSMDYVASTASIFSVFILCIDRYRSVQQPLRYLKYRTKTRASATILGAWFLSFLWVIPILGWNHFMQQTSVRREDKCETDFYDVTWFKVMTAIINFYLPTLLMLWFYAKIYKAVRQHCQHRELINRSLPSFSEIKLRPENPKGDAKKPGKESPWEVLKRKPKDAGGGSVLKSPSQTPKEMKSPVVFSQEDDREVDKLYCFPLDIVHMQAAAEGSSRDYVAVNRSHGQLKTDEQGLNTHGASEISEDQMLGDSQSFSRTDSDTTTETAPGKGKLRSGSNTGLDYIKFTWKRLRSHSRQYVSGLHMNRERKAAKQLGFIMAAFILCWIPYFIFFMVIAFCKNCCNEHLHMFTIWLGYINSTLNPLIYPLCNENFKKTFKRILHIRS

The first assay addresses human Dopamine D2 receptor (Homo sapiens, UniProt P14416). Put plainly: Binding affinity at cloned human Dopamine D2 receptor. Particulars: read-out: hD2 Ki.
Consider `COC(CCN1CCC(c2cccc(NC(=O)C(C)C)c2)CC1)c1ccccc1` (stereo not shown) [Example 37], for which the Ki turned out to be 34900 nM.

The next assay concerns Male Sprague Dawley rats. Put plainly: Continuous Slow Transvesicular Infusion (CSTI) rat model. It is filed as in vivo. Also noted: key: F: Produced an increase in bladder capacity in rats relative to baseline capacity. Particulars: intragastric administration, vs baseline capacity. Here is the method:
The effects of compounds on the micturition reflex were assessed in the “distension-induced rhythmic contraction” (DIRC), as described in previous publications (e.g. Maggi et al, 1987; Morikawa et al, 1992), and Continuous Slow Transvesicular Infusion (CSTI) models in rats. Male Sprague Dawley rats weighing approximately 300 g were used for the study. Rats were anaesthetized with pentobarbitone sodium (50 mg/kg, i.p). Through a median abdominal incision, bladder was exposed and a polyethylene cannula (PE 50) was introduced into the bladder through a small cut on the dome of the bladder and the cannula was secured with a purse string suture. The other end of the cannula was exteriorized subcutaneously at the dorsal neck area. Similarly, another cannula (PE 50) was introduced into the stomach through a paramedian abdominal incision with the free end exteriorized subcutaneously to the neck region. The surgical wounds were closed with silk 4-0 suture and the animal was allowed to recover with appropriate post surgical care. On the following day, the animal was placed in a rat restrainer. The open end of the bladder-cannula was connected to a pressure transducer as well as infusion pump through a three-way stopcock. The bladder voiding cycles were initiated by continuous infusion of normal saline at the rate of 100 μl/min. The repetitive voiding contractions were recorded on a Power Lab on-line data acquisition software. After recording the basal voiding pattern for an hour, the test drug or vehicle was administered directly into stomach through the intragastric catheter and the voiding cycles were monitored for 5 hours. Micturition pressure and frequency were calculated before and after the treatment (at every 30 min interval) for each animal. Bladder capacity was calculated from the micturition frequency, based on the constant infusion of 100 ul/min. The effect of the test drug was expressed as a percentage of basal, pre-drug bladder capacity. WAY 100635 was used as positive control for comparison.
`Cc1ccc(C(=O)CCCN2CCC(c3cccc(NC(=O)C(C)C)c3)CC2)cc1C` [Example 2]: the “CSTI (bladder capacity)” value is reported as “F”.

As to `CC(C)C(=O)Nc1cccc(C2CCN(CCCC(=O)c3ccc(Cl)cc3)CC2)c1` [Example 10], the “CSTI (bladder capacity)” value is listed as “F”.

Regarding `COc1ccc2[nH]c(-c3ccccc3)c(CCCN3CCC(c4cccc(NC(=O)C(C)C)c4)CC3)c2c1` [Example 91], the “CSTI (bladder capacity)” value is “F”.

In the case of `CCn1c2ccccc2c2cc(CN3CCC(c4cccc(NC(=O)C(C)C)c4)CC3)ccc21` [Example 99], the “CSTI (bladder capacity)” value was “F”.

With `Cc1onc(-c2c(Cl)cccc2Cl)c1C(=O)NCCCCCN1CCC(c2cccc(NC(=O)C(C)C)c2)CC1` [Example 106], the “CSTI (bladder capacity)” value is on record as “F”.

`CC(=O)c1cccc(O[C@H](CCN2CCC(c3cccc(NC(=O)C(C)C)c3)CC2)c2ccccc2)c1` [Example 116]: the “CSTI (bladder capacity)” value is listed as “F”.

In the next assay the test system is Female Sprague Dawley rats. The experiment in a line: Distension-induced rhythmic contraction (DIRC) model of the micturition reflex. The assay is classed as in vivo, rat. The arrangement: key: E: Produced a significant increase in contraction interval relative to pre-drug interval. Particulars: urethane-anesthetized female rats, i.v. or i.p.; vs pre-drug interval. As to the method:
The effects of compounds on the micturition reflex were assessed in the “distension-induced rhythmic contraction” (DIRC), as described in previous publications (e.g. Maggi et al, 1987; Morikawa et al, 1992), and Continuous Slow Transvesicular Infusion (CSTI) models in rats. Female Sprague Dawley rats weighing approximately 300 g were anesthetized with subcutaneous urethane (1.2 g/kg). The trachea was cannulated with PE240 tubing to provide a clear airway throughout the experiment. A midline abdominal incision was made and the left and right ureters were isolated. The ureters were ligated distally (to prevent escape of fluids from the bladder) and cannulated proximally with PE10 tubing. The incision was closed using 4-0 silk sutures, leaving the PE10 lines routed to the exterior for the elimination of urine. The bladder was canulated via the transurethral route using PE50 tubing inserted 2.5 cm beyond the urethral opening. This cannula was secured to the tail using tape and connected to a pressure transducer. To prevent leakage from the bladder, the cannula was tied tightly to the exterior urethral opening using 4-0 silk. To initiate the micturition reflex, the bladder was first emptied by applying pressure to the lower abdomen, and then filled with normal saline in […] (maximum=2 ml) until spontaneous bladder contractions occurred (typically 20-40 mmHg at a rate of one contraction every 2 to 3 minutes. Once a regular rhythm was established, vehicle (saline) or Test Compounds were administered i.v. or i.p. to explore their effects on bladder activity. The 5-HT1A antagonist WAY-100635 was given as a positive control. Data were expressed as contraction interval (in seconds) before drug application (basal), or after the application of vehicle or test article.
Turning to `Cc1ccc(C(=O)CCCN2CCC(c3cccc(NC(=O)C(C)C)c3)CC2)cc1C` [Example 2], the “DIRC (contraction interval)” value is “E”.

As for `CC(C)C(=O)Nc1cccc(C2CCN(CCCC(=O)c3ccc(Cl)cc3)CC2)c1` [Example 10], the “DIRC (contraction interval)” value is “E”.

With `COc1ccc2[nH]c(-c3ccccc3)c(CCCN3CCC(c4cccc(NC(=O)C(C)C)c4)CC3)c2c1` [Example 91], the “DIRC (contraction interval)” value is listed as “E”.

For the molecule `CCn1c2ccccc2c2cc(CN3CCC(c4cccc(NC(=O)C(C)C)c4)CC3)ccc21` [Example 99], the “DIRC (contraction interval)” value was “E”.

Take `Cc1onc(-c2c(Cl)cccc2Cl)c1C(=O)NCCCCCN1CCC(c2cccc(NC(=O)C(C)C)c2)CC1` [Example 106]: the “DIRC (contraction interval)” value is reported as “E”.

For the molecule `CC(=O)c1cccc(O[C@H](CCN2CCC(c3cccc(NC(=O)C(C)C)c3)CC2)c2ccccc2)c1` [Example 116], the “DIRC (contraction interval)” value is listed as “E”.

Another assay deals with G4F-7 cells.
Assay: not given
Particulars: mouse melanoma cells; read-out: Ki (inhibition of [Phe13,Tyr19]-MCH binding); cited from earlier work.
Turning to rat ANF, the Ki is 116 nM.

The same assay, now with this note: radioiodinated ligand, G4F-7 cells; cited from earlier work.
Turning to [Phe^13, Tyr^19]-MCH, the Kd is 0.118 nM.

For a further assay, the target named is rat MCH-1 (Rattus norvegicus, UniProt P97639). Put plainly: Radioligand binding assay at cloned rat MCH1 receptor ([3H] Compound A). The arrangement: host or cells: Peak rapid 293 (Peakr293) cells, transient calcium phosphate transfection, membranes. Particulars: cloned rat MCH1 receptor; 0.08 nM [3H] Compound A; Peakr293 cell membranes; read-out: Ki (nM) rMCH1.
rat MCH-1, sequence (P97639 whole entry): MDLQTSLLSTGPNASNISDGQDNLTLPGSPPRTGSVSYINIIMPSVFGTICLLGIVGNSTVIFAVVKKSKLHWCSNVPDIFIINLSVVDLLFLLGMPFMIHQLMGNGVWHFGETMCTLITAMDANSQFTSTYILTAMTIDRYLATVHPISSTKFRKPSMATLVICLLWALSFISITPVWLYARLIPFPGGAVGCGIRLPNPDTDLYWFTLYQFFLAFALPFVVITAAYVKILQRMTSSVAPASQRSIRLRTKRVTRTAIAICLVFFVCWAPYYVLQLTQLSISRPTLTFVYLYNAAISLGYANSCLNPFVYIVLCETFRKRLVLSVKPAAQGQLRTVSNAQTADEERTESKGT
For the molecule `CC(C)C(=O)Nc1cccc(C2CCN(CCCCCC(Oc3cc(C(F)(F)F)ccc3F)c3ccccc3F)CC2)c1` (stereo not shown) [Example 913], the Ki is 12.9 nM.

`CC(C)C(=O)Nc1cccc(C2CCN(CCCCCC(Oc3cc(C(F)(F)F)ccc3F)c3ccc(Cl)cc3)CC2)c1` (stereo not shown) [Example 914]: the Ki came out at 17.3 nM.

Regarding `CC(C)C(=O)Nc1cccc(C2CCN(CCCCCC(Oc3cc(C(F)(F)F)ccc3F)c3cccc(F)c3)CC2)c1` (stereo not shown) [Example 915], the inhibition constant Ki is 22.6 nM.

`CC(C)C(=O)Nc1cccc(C2CCN(CCCCCC(Oc3cc(C(F)(F)F)ccc3F)c3ccccc3)CC2)c1` (stereo not shown) [Example 916]: the Ki came to 20.2 nM.

As to `CC(C)C(=O)Nc1cccc(C2CCN(CCCCCCC(Oc3cc(C(F)(F)F)ccc3F)c3ccccc3F)CC2)c1` (stereo not shown) [Example 917], the Ki came to 78 nM.

Consider `COc1ccc(OC(CCCCN2CCC(c3cccc(NC(=O)C(C)C)c3)CC2)c2ccc(F)cc2)cc1` (stereo not shown) [Example 918], for which the Ki came out at 29.3 nM.

With `CC(C)C(=O)Nc1cccc(C2CCN(CCCCC(Oc3ccc(Br)cc3)c3ccc(F)cc3)CC2)c1` (stereo not shown) [Example 919], the Ki was determined as 14 nM.

Consider `CC(C)C(=O)Nc1cccc(C2CCN(CCCCC(Oc3ccc(Cl)cc3)c3ccc(Cl)cc3)CC2)c1` (stereo not shown) [Example 920], for which the Ki was 6.9 nM.

Consider `CC(C)C(=O)Nc1cccc(C2CCN(CCCCC(Oc3ccc(Cl)cc3)c3ccccc3)CC2)c1` (stereo not shown) [Example 921], for which the Ki was 6.8 nM.

Consider `CC(=O)c1cccc(OC(CCCCN2CCC(c3cccc(NC(=O)C(C)C)c3)CC2)c2ccc(F)cc2)c1` (stereo not shown) [Example 922], for which the Ki was 25 nM.

As to `CC(C)C(=O)Nc1cccc(C2CCN(CCCCC(Oc3ccc(F)cc3)c3ccc(Cl)cc3)CC2)c1` (stereo not shown) [Example 923], the Ki stood at 1.3 nM.

Take `CC(C)C(=O)Nc1cccc(C2CCN(CCCCC(Oc3ccc(Br)cc3)c3ccccc3)CC2)c1` (stereo not shown) [Example 924]: the Ki turned out to be 13.1 nM.

With `COc1ccc(OC(CCCCN2CCC(c3cccc(NC(=O)C(C)C)c3)CC2)c2ccc(Cl)cc2)cc1` (stereo not shown) [Example 925], the Ki was found to be 13.4 nM.

`CC(C)C(=O)Nc1cccc(C2CCN(CCCCC(Oc3ccc(F)cc3)c3ccc(F)cc3)CC2)c1` (stereo not shown) [Example 926]: the Ki turned out to be 1.4 nM.

Take `CC(=O)c1cccc(OC(CCCCN2CCC(c3cccc(NC(=O)C(C)C)c3)CC2)c2ccccc2)c1` (stereo not shown) [Example 927]: the Ki worked out at 60.7 nM.

Regarding `COc1ccc(OC(CCCCN2CCC(c3cccc(NC(=O)C(C)C)c3)CC2)c2ccccc2)cc1` (stereo not shown) [Example 928], the inhibition constant (Ki) is 14.9 nM.

With `CC(C)C(=O)Nc1cccc(C2CCN(CCCCC(Oc3cc(C(F)(F)F)ccc3F)c3ccc(C(F)(F)F)cc3)CC2)c1` (stereo not shown) [Example 929], the inhibitory constant (Ki) came out at 29.9 nM.

Turning to `CC(C)C(=O)Nc1cccc(C2CCN(CCCCC(Oc3cc(C(F)(F)F)ccc3F)c3cccc(Cl)c3)CC2)c1` (stereo not shown) [Example 930], the Ki turned out to be 14.6 nM.

For `CC(C)C(=O)Nc1cccc(C2CCN(CCCCC(Oc3cc(C(F)(F)F)ccc3F)c3ccccc3F)CC2)c1` (stereo not shown) [Example 931], the Ki was 9.6 nM.

In the case of `CC(C)C(=O)Nc1cccc(C2CCN(CCCCC(Oc3cc(C(F)(F)F)ccc3F)c3cccc(F)c3)CC2)c1` (stereo not shown) [Example 932], the Ki came out at 9.4 nM.

On to `CC(=O)c1cccc(OC(CCCCN2CCC(c3cccc(NC(=O)C(C)C)c3)CC2)c2ccc(Cl)cc2)c1` (stereo not shown) [Example 933], for which the inhibition constant Ki was found to be 10.9 nM.

On to `CC(C)C(=O)Nc1cccc(C2CCN(CCCCC(Oc3cc(C(F)(F)F)ccc3F)c3ccc(Cl)cc3)CC2)c1` (stereo not shown) [Example 934], for which the inhibition constant (Ki) came out at 12.3 nM.

For the molecule `CC(C)C(=O)Nc1cccc(C2CCN(CCCCC(Oc3cc(C(F)(F)F)ccc3F)c3ccc(F)cc3)CC2)c1` (stereo not shown) [Example 935], the Ki was found to be 19.7 nM.

On to `CC(C)C(=O)Nc1cccc(C2CCN(CCCCC(Oc3ccc(Br)cc3)c3ccc(Cl)cc3)CC2)c1` (stereo not shown) [Example 936], for which the Ki stood at 11.6 nM.

Turning to `CC(C)C(=O)Nc1cccc(C2CCN(CCCCC(Oc3ccc(Cl)cc3)c3ccc(F)cc3)CC2)c1` (stereo not shown) [Example 937], the Ki is 28.4 nM.

With `CC(=O)c1ccccc1OC(CCCCN1CCC(c2cccc(NC(=O)C(C)C)c2)CC1)c1ccccc1` (stereo not shown) [Example 938], the Ki came out at 609 nM.

For `CCOc1ccccc1OC(CCCCN1CCC(c2cccc(NC(=O)C(C)C)c2)CC1)c1ccccc1` (stereo not shown) [Example 939], the inhibition constant (Ki) stood at 62 nM.

`CC(C)C(=O)Nc1cccc(C2CCN(CCCCC(Oc3ccc(F)cc3)c3ccccc3)CC2)c1` (stereo not shown) [Example 940]: the Ki was 1.8 nM.

`CC(C)C(=O)Nc1cccc(C2CCN(CCCC(=O)c3ccc(F)cc3)CC2)c1` [Example 941]: the Ki was determined as 15.2 nM.

For `CC(C)C(=O)Nc1cccc(C2CCN(CCCc3cc[nH]c3)CC2)c1` [Example 942], the Ki amounted to 188 nM.

Consider `CC(C)C(=O)Nc1cccc(C2CCN(CCCC(=O)c3ccc(C(C)C)cc3)CC2)c1` [Example 943], for which the Ki stood at 102 nM.

Consider `COc1ccc(C(=O)CCCN2CCC(c3cccc(NC(=O)C(C)C)c3)CC2)cc1` [Example 944], for which the Ki is 38.8 nM.

Regarding `Cc1ccc(C(=O)CCCN2CCC(c3cccc(NC(=O)C(C)C)c3)CC2)cc1` [Example 945], the inhibitory constant (Ki) stood at 31.2 nM.

Take `CC(C)C(=O)Nc1cccc(C2CCN(CCCC(=O)c3ccc(C(C)(C)C)cc3)CC2)c1` [Example 946]: the Ki was found to be 337 nM.

`CC(C)C(=O)Nc1cccc(C2CCN(CCCC(=O)c3ccc(Br)cc3)CC2)c1` [Example 947]: the Ki was 4.3 nM.

For the molecule `CC(C)C(=O)Nc1cccc(C2CCN(CCCC(=O)c3cccs3)CC2)c1` [Example 948], the Ki was 21.2 nM.

Another assay addresses T1, human Histamine H1 receptor (Homo sapiens, UniProt P35367).
T1 construct: expressed in transfected cells
Put plainly: Binding affinity at cloned human Histamine H1 receptor. Particulars: read-out: hH1 Ki.
As to `CC(C)C(=O)Nc1cccc(C2CCN(CC[C@H](Oc3ccc(-c4ccccc4)cc3)c3ccccc3)CC2)c1` [Example 78], the Ki is > 50000 nM.

The term Ki denotes the dissociation constant of the complex between target and ligand, obtained from inhibition or displacement. One may read the Kd as a measure of binding affinity in units of concentration.
